{
  "source": "patent US8652442B2",
  "about": "“Bioluminescence imaging of myeloperoxidase activity in vivo, methods, compositions and apparatuses therefor” (Washington University, priority 2008, dated 2014)",
  "key": {"[1]": {"test_system": "PMA-stimulated whole blood", "method": "Blood was freshly drawn (100-300 μL, by jugular puncture) from MPO^−/− or control MPO^+/+ mice. Blood was stored for up to 6 h in heparinized tubes at room temperature. Ex vivo BLI experiments using whole blood were performed in black-coated 96-well plates. Briefly, 1 μL of blood was diluted in 200 μL of MEBSS supplemented with luminol (100 μM), in the absence or presence of increasing concentrations of 4-ABAFT (0-6.6 mM), L-NMMA (1 mM) or DPI (10 μM). Samples were imaged (exposure time, 60 sec; binning, 4; FOV, 10 cm; open filter) before (t=0) and at the indicated time points after stimulation with PMA (5 μM) or vehicle (DMSO, 1 μL). Photon fluxes±s.e.m. were plotted as a function of time post PMA (min) or concentration of inhibitor.\nLuminol-oxidation can be visualized by bioluminescence imaging and is dependent on MPO activity in vitro. Luminol-dependent BL of stimulated phagocytes and whole blood has been extensively studied using photo-multiplier tube (PMT)-based luminometers. To determine whether BLI could be similarly used to detect oxidant production in biological material, we used a charge-coupled device (CCD)-based bioluminescence imaging system to monitor phagocyte activation in heparinized whole blood (1 μL). Fresh heparinized whole blood (1 μL) was incubated with luminol (100 μM) in MEBSS (200 μL). […] Images show sequential color-coded maps of photon flux superimposed on black & white photographs of the assay plates (FIG. 1b).\nIt is important to note that metals such as iron are highly abundant in blood, but are confined to specific cellular compartments, i.e., hemoglobin in erythrocytes or cytochromes in mitochondrial membranes. […] At t=0, PMA was added to a final concentration of 5 μM and BL was monitored for 60 min at 7.5 min intervals.\nTo determine the relative contribution of other ROS to the BL signal induced by luminol in stimulated blood ex vivo, we focused on two enzymatically-catalyzed ROS products, O2.- and NO., generated by the Phox complex and nitric oxide synthase (NOS), respectively, as well as their reaction product, peroxynitrite (ONOO^−). Freshly-drawn blood (1 μL) from an MPO^+/+ mouse was incubated with the NOS inhibitor L-NMMA (1 mM) or the Phox inhibitor DPI (10 μM), respectively, and imaged 20 min after stimulation with PMA (5 μM)."}, "MPO [2]": {"biological_target": "T1, MPO (Homo sapiens, UniProt P05164)", "T1 sequence (P05164 279-745 limits assumed)": "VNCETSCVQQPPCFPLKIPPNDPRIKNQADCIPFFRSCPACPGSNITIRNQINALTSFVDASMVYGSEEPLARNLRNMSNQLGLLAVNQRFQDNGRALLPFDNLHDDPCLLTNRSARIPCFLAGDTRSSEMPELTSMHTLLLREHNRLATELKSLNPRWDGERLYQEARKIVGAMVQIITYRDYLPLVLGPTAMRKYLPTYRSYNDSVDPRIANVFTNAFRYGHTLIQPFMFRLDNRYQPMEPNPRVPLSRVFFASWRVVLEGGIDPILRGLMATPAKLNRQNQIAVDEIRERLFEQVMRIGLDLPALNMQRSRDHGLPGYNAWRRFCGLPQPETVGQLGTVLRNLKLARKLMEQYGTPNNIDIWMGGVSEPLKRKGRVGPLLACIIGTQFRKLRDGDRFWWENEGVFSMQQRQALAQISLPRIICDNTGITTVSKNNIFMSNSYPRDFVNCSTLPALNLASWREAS", "T1 sequence (P05164 165-273 limits assumed)": "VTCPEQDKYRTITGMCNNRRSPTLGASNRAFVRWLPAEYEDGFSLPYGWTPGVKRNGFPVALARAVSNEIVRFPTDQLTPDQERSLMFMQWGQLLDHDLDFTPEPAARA", "assay": "Dye stability: absorption spectra after treatment with H2O2 and MPO", "format": "physicochemical", "set-up": "purchased Calbiochem", "settings": "H2O2 and MPO in Tris buffer, 30, 60 and 90 min", "method": "In these experiments, absorption spectra were collected for Texas Red (TXR) and Infrared Dye 820 (IRD) treated with H2O2 and MPO (5 mU) in Tris buffer solution for 30 min, 60 min and 90 min as indicated. […] In these experiments, absorption spectra were collected (RLU vs nm wavelength) of Texas Red (TXR) and Infrared Dye 820 (IRD) treated with H2O2 and MPO ([…]) in Tris buffer solution for 30 min, 60 min and 90 min as indicated. (FIG. 17). […] (FIG. 18). […] Thus, in vitro NIR bioluminescence can be used to study dye and fluorophore stability under various experimental conditions. […]"}, "MPO activity [3]": {"test_system": "MPO activity", "assay": "BLI of allergic contact hypersensitivity with topical LGTR or luminol, optical filter sets", "format": "in vivo, mice", "method": "Thirty min later, mice were simultaneously imaged in the IVIS 100 imaging system (FOV, 10 cm; binning, 8; acquisition time, 300 sec; f/stop, 1) using four different optical filter sets in rapid sequence: 1) no filter, 2) <510 nm filter, 3) >590 nm filter, and 4) >650 nm filter (FIG. 22, FIG. 23). The photon flux as a percentage of an open filter was compared for both compounds (FIG. 23).\nBriefly, murine anti-DNP IgE (20 μg, 100 μl) was intravenously injected to two C57/B mice.\nAdministration of luminol derivatives and imaging: Forty-eight hours post DNFB treatment, luminol-glycine Texas Red (LGTR, 1 mM in DMSO, left mouse) or luminol (1 mM In DMSO, right mouse) were applied topically (45 μl per ear) on both left and right ears. Thirty minutes later, mice were simultaneously imaged using the IVIS 100 imaging system (FOV 10 cm; binning, 8; acquisition time. 300 sec; f/stop, 1) using four different optical filler sets: (1) no filter, (2)<510 nm filler, (3)>590 nm filter and (4)>650 nm filter."}, "purified MPO": {"biological_target": "T2, purified MPO (Homo sapiens, UniProt P05164)", "T2 construct": "purchased Calbiochem", "T2 sequence (P05164 279-745 limits assumed)": "as the sequence (P05164 279-745 limits assumed) above", "T2 sequence (P05164 165-273 limits assumed)": "as the sequence (P05164 165-273 limits assumed) above", "assay": "Output of LGTR and luminol in vitro with purified MPO and H2O2", "format": "biochemical", "settings": "for light output: purified MPO mixed with 100% serum rather than MEBSS", "excerpt": "To analyze the output of LGTR and luminol in vitro, […] of each were mixed with purified MPO (5 mU) and vehicle (MEBSS)."}, "human blood": {"test_system": "human blood", "assay": "Ex vivo BLI of LGTR and luminol in human whole blood after PMA stimulation", "format": "cell-based", "method": "For analysis of LGTR in whole blood, human blood was freshly drawn from a volunteer (by venous puncture). Blood was stored for up to 6 h in heparinized tubes at room temperature. Ex vivo BLI experiments using whole blood were performed in black-coated 96-well plates. Briefly, 200 μL of blood was added to the wells. LGTR, luminol, or DMSO ([…] of each) were added to the wells. Samples were imaged (exposure time, 160 sec; binning, 8; FOV, 10 cm; open filter or >590 nm) before (t=0) and at the indicated time points after stimulation with PMA (5 μM) or vehicle (ethanol, 1 μL). Photon fluxes±s.e.m. were plotted as a function of time post PMA (min) (FIG. 19). […] In addition, to isolate the buffy coat (white cells), whole blood was centrifuged at 700 rpm for 8 min, and subjected to the same analysis."}, "MPO [4]": {"biological_target": "T1, MPO", "description": "Matrigel was used to immobilize human MPO and/or GOX (that produces H2O2) in vivo (Chen, J. W., et al., Radiology 240, 473-481, 2006). Briefly, GOX (30 U), MPO (20 U), vehicle (PBS) or GOX+MPO (30 and 20 U, respectively) were added to Matrigel (200 μL) at 4° C. The four different mixtures were injected subcutaneously into different locations on the back of NCr nu/nu mice. Thirty minutes later, mice were anesthetized (isoflurane inhalation), administered luminol (200 mg/kg BW, i.p.) and imaged sequentially (exposure time, 60 sec; binning, 4; FOV, 7.5 cm) every 5 minutes up to one hour. Regions of interest (ROI) were manually selected over the four implants and total photon emissions from each implant were plotted as a function of time.\nWe next determined the biochemical requirements and pharmacokinetics of luminol-BL in an intact animal and whether MPO activity could be imaged in vivo. […] We embedded GOX (30 U), MPO (20 U); MPO+GOX (same concentrations) or vehicle (PBS) in Matrigel solution and established subcutaneous implants of these mixtures on the backs of NCR nu/nu mice (n=3, FIG. 2a).\nPhoton fluxes were determined from ROI's, manually drawn over the different implants and plotted as a function of time."}, "MPO activity [5]": {"test_system": "MPO activity", "settings": "mouse, in vivo", "description": "To induce acute skin inflammation (Fretland, D. J. et al. Inflammation 19, 333-346, 1995), PMA (100 μM, 20 μL) or vehicle (ethanol) were applied topically (left and right ear, respectively) on the inner and outer surface of the earlobe of MPO^−/− (n=5) or control (n=5) mice. Twenty-four and 48 hours later, luminol was administered (200 mg/kg BW, i.p.) and 10 min later mice were imaged (exposure time, 180 see; binning, 4; FOV, 7.5 cm) under anesthesia (isoflurane inhalation). ROI's were manually selected over the left and right ear lobes (PMA-treated and untreated, respectively) and over the central part of the skull (background). Data were expressed as (PMA—background)/(vehicle—background)±s.e.m.\nTopical application of PMA onto the earlobes of mice induces acute dermatitis, manifested by local swelling, erythema and infiltration of neutrophils. […] We therefore used this model for assessment of MPO activity by luminol-BLI in both MPO^+/+ and MPO^−/− mice. Acute dermatitis was generated by topical application of PMA on the left ear lobe of MPO^+/+ or MPO^−/− mice (shown are three representative mice for each genetic background, n=5 for each). Twenty-four hours after topical application of PMA, mice were imaged (FIG. 3a) following the administration of luminol (200 mg/kg BW, i.p.)."}, "MPO activity [6]": {"test_system": "MPO activity", "settings": "mouse, in vivo", "remark": "listed apart in the source", "description": "MPO^−/− (n=5) or control MPO^+/+ (n=5) mice were briefly anaesthetized (isoflurane inhalation) and LPS (20 μg in 20 μL PBS) or vehicle (PBS, 20 μL) were injected into the left or right ankles, respectively, using a 30-gauge needle. Mice were administered luminol (as above) and imaged immediately after LPS administration under anesthesia (isoflurane inhalation), as well as 1, 2, 3, 4 and 5 days later (exposure time, 180 sec; binning, 4; FOV, 10 cm). ROIs were manually selected over the left and right feet (LPS-treated and untreated, respectively) and over the proximal part of the tail (background). Data were expressed as (LPS—background)/(vehicle—background)±s.e.m.\nWe next imaged MPO activity in a focal arthritis model. […] LPS was injected to the joints of the left lower limbs of wild type MPO^+/+ (FIG. 3b, left panel, n=5) or MPO^−/− mice (FIG. 3b, right panel, n=5). Vehicle (PBS) was injected into the joints of the right lower limbs. At t=0 (before LPS injection), 24, 48, 72, 96 and 120 h, luminol was administered (200 mg/kg BW, i.p.) and mice were imaged."}, "MPO activity [7]": {"test_system": "MPO activity", "settings": "24 h after DNFB, luminol 200 mg/kg BW i.p.", "description": "Briefly, murine anti-DNP IgE (20 μg in 100 μl, Sigma-Aldrich) was injected intravenously into 13 MPO^+/+ and 9 MPO^−/− mice. One control mouse of each genetic MPO background was injected with vehicle (saline) only. Twenty-four hours later, all left ears were painted with DNFB (0.2% in acetone:olive oil, 1:3) and all right ears were painted with vehicle (acetone:olive oil, 1:3). On the next day, all mice were imaged following luminol administration (200 mg/kg BW, i.p.). Mice were euthanized immediately after imaging and histological specimens were prepared from both left and right ears by fixation with paraformaldehyde (4%), de-calcification (24 h in 14% EDTA), paraffin-embedding, sectioning (5 μm) and staining with H&E. For each condition, eosinophils were counted in 5 HPF (magnification ×400).\nEosinophil-dominant recruitment and activation was induced by passive immunization against DNP followed by topical challenge with DNFB (Ray, M., et al., J. Immunol. 131, 1096-1102, 1983) in both MPO+/+ control as well as MPO^−/− mice. […] Acute allergic dermatitis was induced by passive immunization with anti-DNP IgE and topical challenge with DNFB on the left ear lobes of MPO^+/+ (n=14) and MPO^−/− (n=10) mice. Right ears served as vehicle controls and mice challenged with DNFB, but not anti-DNP IgE, served as negative controls. […]"}, "MPO activity [8]": {"test_system": "MPO activity", "settings": "mouse, in vivo", "remark": "listed apart in the source", "description": "GzB→Tax mice were monitored for tumorigenesis on ears, limbs and tails by visual examination and palpation, weekly, for 200-300 days after birth. Ten mice with visible tumors at various sizes (1-8 mm in diameter) and locations were administered luminol (200 mg/kg BW, i.p.) and imaged (exposure time, 300 sec; binning, 4; FOV, 10 cm) under anesthesia (isoflurane inhalation). Tumors were excised, fixed in paraformaldehyde (4%), paraffin-embedded, sectioned (5 μm) and stained with H&E or immuno-stained for MPO (see below).\nWe next used BLI to examine tumor-bearing GzB→Tax mice after intraperitoneal administration of luminol (200 mg/kg BW, i.p., FIG. 5 c-g)."}, "[9]": {"settings": "systemic administration; cited from earlier work"}, "[10]": {"settings": "whole blood 1 μL, luminol 100 μM, PMA 5 μM"}},
  "note": "Read-outs that look alike come from different tables or passages of the source.",
  "data": [
    {"smiles": "c1ccc2c(c1)[I+]c1ccccc1-2", "note": "[DPI, diphenyleneiodonium]", "values": [
      {"measurement": "effect on PMA-induced BL", "setting": "[1]; DPI 10 μM, MPO+/+ mouse blood, imaged 20 min after PMA 5 μM", "result": "complete abrogation"}
    ]},
    {"smiles": "CC1(C)C(=CC=C2CCCC(C=CC3=[N+](CCCCS(=O)(=O)[O-])c4ccc5ccccc5c4C3(C)C)=C2Cl)N(CCCCS(=O)(=O)[O-])c2ccc3ccccc3c21.[Na+]", "note": "[IRD]", "values": [
      {"measurement": "stability on exposure to MPO over time", "setting": "MPO [2]", "result": "loss of IRD molecular integrity over time"}
    ]},
    {"smiles": "CN=C(N)NCCC[C@H](N)C(=O)O.O=C(O)CC(O)(CC(=O)O)C(=O)O", "note": "[L-NMMA, L-N^G-monomethyl arginine citrate]", "values": [
      {"measurement": "effect on luminol-dependent BL", "setting": "[1]; L-NMMA 1 mM, MPO+/+ mouse blood, imaged 20 min after PMA 5 μM", "result": "did not cause a significant reduction"}
    ]},
    {"smiles": "O=C(CCCCCNS(=O)(=O)c1ccc(C2=c3cc4c5c(c3Oc3c2cc2c6c3CCCN6CCC2)CCC[N+]=5CCC4)c(S(=O)(=O)[O-])c1)NCC(=O)Nc1cccc2c(=O)[nH][nH]c(=O)c12", "note": "[LGTR]", "values": [
      {"measurement": "BL after induction of acute contact hypersensitivity", "setting": "MPO activity [3]; MPO+/+ mice, 1 mM in DMSO topical, 45 μl per ear", "result": "substantial LGTR-BL"},
      {"measurement": "photon flux compared with luminol", "setting": "MPO activity [3]; filters >590 and 650 nm, topical 1 mM in DMSO", "result": "3-4 fold"},
      {"measurement": "percent of the signal greater than 590 nm (red spectrum)", "setting": "purified MPO; purified MPO 5 mU in MEBSS buffer, H2O2 50 μM", "result": "~75", "unit": "%"},
      {"measurement": "brightness compared with luminol", "setting": "purified MPO; purified MPO in MEBSS buffer", "result": "brighter than luminol"},
      {"measurement": "light output", "setting": "purified MPO", "result": "no light output"},
      {"measurement": "signal over the luminol signals", "setting": "human blood; early time points in whole blood", "result": "greater than 75%"},
      {"measurement": "fraction of signal that was red (>590 nm)", "setting": "human blood; human whole blood, 12 min post PMA stimulation", "result": "greater than 75%"}
    ]},
    {"smiles": "Nc1cccc2c(=O)[nH][nH]c(=O)c12", "note": "[luminol, 5-amino-2,3-dihydro-1,4-phthalazine-dione]", "values": [
      {"measurement": "signal-to-background ratio", "setting": "[1]; few thousand phagocytes in 1 μL whole blood", "result": "> 30"},
      {"measurement": "luminol-BL with whole blood of MPO−/− mice", "setting": "[1]; luminol 100 μM, PMA 5 μM, 0-55 min", "result": "undetectable"},
      {"measurement": "peak BL over background values", "setting": "[1]; [10]", "result": "30-40 fold"},
      {"measurement": "time of BL peak post stimulation", "setting": "[1]; [10]", "result": "20 to 25", "unit": "min"},
      {"measurement": "light output", "setting": "purified MPO", "result": "no light output"},
      {"measurement": "photon output compared", "setting": "human blood; human whole blood following PMA stimulation", "result": "exceeded LGTR"},
      {"measurement": "signal-to-background ratio for luminol-BLI", "setting": "MPO [4]; MPO+GOX Matrigel implants in vivo", "result": "exceeded 3000"},
      {"measurement": "absorption upon i.p. injection", "setting": "MPO [4]; luminol 200 mg/kg BW i.p.", "result": "rapidly absorbed"},
      {"measurement": "time to maximum BL after injection", "setting": "MPO [4]; luminol 200 mg/kg BW i.p., MPO+GOX implant, NCr nu/nu mice", "result": 10, "unit": "min"},
      {"measurement": "BL of PMA-treated ears over vehicle-treated ears", "setting": "MPO activity [5]", "result": "1.9±0.5", "unit": "fold"},
      {"measurement": "background-normalized BL of PMA-treated ears over vehicle-treated ears", "setting": "MPO activity [5]", "result": "13.1±0.2", "unit": "fold"},
      {"measurement": "BL signal over background", "setting": "MPO activity [6]", "result": "10 to 15", "unit": "fold"},
      {"measurement": "luminol-BL from LPS- or vehicle-treated joints", "setting": "MPO activity [6]", "result": "negligible"},
      {"measurement": "peak BL emission, fold over vehicle-treated foot", "setting": "MPO activity [6]", "result": "25 to 30", "unit": "fold"},
      {"measurement": "luminol-BL signal from inflamed ears", "setting": "MPO activity [7]; MPO+/+ mice", "result": "substantial luminol-BL"},
      {"measurement": "luminol-BL signal from inflamed ears", "setting": "MPO activity [7]; MPO−/− mice", "result": "no significant luminol-BL signal"},
      {"measurement": "localization of luminol-BL in tumor-bearing mice", "setting": "MPO activity [8]", "result": "colocalized with foci of tumorigenesis"},
      {"measurement": "absorption and excretion", "setting": "[9]", "result": "well absorbed and rapidly excreted"},
      {"measurement": "toxicity", "setting": "[9]", "result": "relatively non-toxic"}
    ]},
    {"smiles": "NCC(=O)Nc1cccc2c(=O)[nH][nH]c(=O)c12", "note": "[luminol-glycine, 2-Amino-N-(1,4-dioxo-1,2,3,4-tetrahydrophthalazine-5-yl)acetamide]", "values": [
      {"measurement": "signal generated", "setting": "purified MPO; control compound, purified MPO", "result": "no signal"}
    ]}
  ]
}
